Measurements from patent US20210222208A1, “SUGAR-DERIVED STIMULANT FOR ENHANCEMENT OF AEROBIC AND ANAEROBIC FERMENTATION PERFORMANCE” (priority 2018, published 2021).

Test system: S. cerevisiae M11205
Assay type: cell-based, Saccharomyces cerevisiae

## OCCCCO [1,4-butanediol]
  Contribution to enhancement at higher sugar concentrations: no distinct contribution for enhancement
  Contribution to stimulant properties versus control without addition: not itself a contributor to the stimulant properties
  Day 5 % of Theoretical Max. Ethanol Yield: 88.8%
  Effect on fermentation rates: does not create the increased fermentation rates
